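Test compounds were applied to cells in 96-well plates for 48 hours at 5 doses. At the GI50, growth is halved.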 Calls of active or inactive are those of the source. Rule as the data show it: active = GI50 up to about 1.1 µM and inactive = higher.
Assays:
Assay in all cases: growth of human tumour cells (NCI), 48 h
786-0 = system: 786-0
A498 = system: A498
A549 = system: A549
ACHN = system: ACHN
BT-549 = system: BT-549
CAKI-1 = system: CAKI-1
DU-145 = system: DU-145
HCT-116 = system: HCT-116
HOP-62 = system: HOP-62
IGROV-1 = system: IGROV-1
M14 = system: M14
NCI-H226 = system: NCI-H226
NCI-H23 = system: NCI-H23
NCI-H460 = system: NCI-H460
OVCAR-5 = system: OVCAR-5
RXF 393 = system: RXF 393
SN12C = system: SN12C
UACC-257 = system: UACC-257
UO-31 = system: UO-31
SK-MEL-2 = system: SK-MEL-2

Compound | GI50 (786-0) | GI50 (A498) | GI50 (A549) | GI50 (ACHN) | GI50 (BT-549) | GI50 (CAKI-1) | GI50 (DU-145) | GI50 (HCT-116) | GI50 (HOP-62) | GI50 (IGROV-1) | GI50 (M14) | GI50 (NCI-H226) | GI50 (NCI-H23) | GI50 (NCI-H460) | GI50 (OVCAR-5) | GI50 (RXF 393) | GI50 (SN12C) | GI50 (UACC-257) | GI50 (UO-31) | GI50 (SK-MEL-2)
Cc1cc2c(cc1Cl)SC(N/N=C(\N)c1ccc(Cl)cc1)=NS2(=O)=O | 90.8 µM (inactive) | 32.9 µM (inactive) | 96.6 µM (inactive) | 84.3 µM (inactive) | 46.7 µM (inactive) | > 100 µM (inactive) | > 100 µM (inactive) | 46.2 µM (inactive) | > 100 µM (inactive) | 31 µM (inactive) | 81.5 µM (inactive) | > 100 µM (inactive) | 30.7 µM (inactive) | 52.7 µM (inactive) | > 100 µM (inactive) | 90.2 µM (inactive) | 78.3 µM (inactive) | 62.7 µM (inactive) | 42.7 µM (inactive) | –
CC(C)(C)OC(=O)N1CCc2[nH][nH]c(=O)c2C1 | > 100 µM (inactive) | > 100 µM (inactive) | > 100 µM (inactive) | – | > 100 µM (inactive) | > 100 µM (inactive) | > 100 µM (inactive) | > 100 µM (inactive) | > 100 µM (inactive) | > 100 µM (inactive) | > 100 µM (inactive) | > 100 µM (inactive) | > 100 µM (inactive) | > 100 µM (inactive) | – | > 100 µM (inactive) | > 100 µM (inactive) | > 100 µM (inactive) | > 100 µM (inactive) | –
COC(=O)[C@@H](COC(=O)/C=C/c1ccc(OC(C)=O)c(OC(C)=O)c1)NC(=O)/C=C/c1ccc(OC(C)=O)c(OC(C)=O)c1 | 14.8 µM (inactive) | 80.9 µM (inactive) | 42.8 µM (inactive) | 32.2 µM (inactive) | 60.8 µM (inactive) | 15.3 µM (inactive) | 22.8 µM (inactive) | 16 µM (inactive) | 25.6 µM (inactive) | 32.4 µM (inactive) | 14.6 µM (inactive) | 35.6 µM (inactive) | 28.1 µM (inactive) | 18.5 µM (inactive) | 45.8 µM (inactive) | 35.1 µM (inactive) | 18 µM (inactive) | 51.8 µM (inactive) | – | 21.7 µM (inactive)
Cc1ccc(C2=C(Cl)C(=O)C(c3ccc(C)cc3)=C(Cl)C2=O)cc1 | > 100 µM (inactive) | > 100 µM (inactive) | > 100 µM (inactive) | > 100 µM (inactive) | > 100 µM (inactive) | > 100 µM (inactive) | > 100 µM (inactive) | > 100 µM (inactive) | > 100 µM (inactive) | > 100 µM (inactive) | > 100 µM (inactive) | > 100 µM (inactive) | > 100 µM (inactive) | > 100 µM (inactive) | > 100 µM (inactive) | > 100 µM (inactive) | > 100 µM (inactive) | > 100 µM (inactive) | > 100 µM (inactive) | –
COC(=O)C(Cc1ccc2c(c1)CCC2)Cc1ccc2c(c1)CCC2 | 78.2 µM (inactive) | 38.1 µM (inactive) | 41.3 µM (inactive) | 68.7 µM (inactive) | 27.1 µM (inactive) | – | > 100 µM (inactive) | 66.2 µM (inactive) | > 100 µM (inactive) | > 100 µM (inactive) | 80 µM (inactive) | 42.5 µM (inactive) | 29.6 µM (inactive) | 53.2 µM (inactive) | > 100 µM (inactive) | 31 µM (inactive) | > 100 µM (inactive) | 37 µM (inactive) | 53.3 µM (inactive) | 18.4 µM (inactive)
Cc1cs/c(=N\C(P(=O)(O)O)P(=O)(O)O)n1C | 90.8 µM (inactive) | > 100 µM (inactive) | > 100 µM (inactive) | > 100 µM (inactive) | > 100 µM (inactive) | > 100 µM (inactive) | > 100 µM (inactive) | > 100 µM (inactive) | > 100 µM (inactive) | > 100 µM (inactive) | > 100 µM (inactive) | > 100 µM (inactive) | > 100 µM (inactive) | > 100 µM (inactive) | > 100 µM (inactive) | > 100 µM (inactive) | – | > 100 µM (inactive) | > 100 µM (inactive) | –
O=C1CC(NC(=O)C(F)(F)F)c2c1csc2Br (stereo not given) | 26.5 µM (inactive) | 45.3 µM (inactive) | > 100 µM (inactive) | > 100 µM (inactive) | 44.1 µM (inactive) | – | 2.11 µM (inactive) | 32.8 µM (inactive) | > 100 µM (inactive) | > 100 µM (inactive) | 88.3 µM (inactive) | > 100 µM (inactive) | > 100 µM (inactive) | 1.51 µM (inactive) | 2.24 µM (inactive) | 2.87 µM (inactive) | 68.4 µM (inactive) | > 100 µM (inactive) | 45.5 µM (inactive) | > 100 µM (inactive)
CO[C@@H]1C[C@H](OC(N)=O)[C@@H]2C=C[C@@H]3/C=C(C)/C=C/[C@@H](C)[C@H]([C@H](C)[C@H](O)[C@@H](C)NC(C)=O)OC(=O)/C=C/C=C(C)\C=C\[C@]3(C)[C@@H]2C1 | < 0.01 µM (active) | < 0.01 µM (active) | < 0.01 µM (active) | < 0.01 µM (active) | 2.16 µM (inactive) | < 0.01 µM (active) | < 0.01 µM (active) | < 0.01 µM (active) | < 0.01 µM (active) | < 0.01 µM (active) | < 0.01 µM (active) | < 0.01 µM (active) | 0.522 µM (active) | < 0.01 µM (active) | 1.42 µM (inactive) | < 0.01 µM (active) | – | 0.0354 µM (active) | < 0.01 µM (active) | 1.28 µM (inactive)
CC1(C)N=C(N)N=C(N)N1c1cccc(OCCOc2ccc([N+](=O)[O-])cc2)c1 | 4.99 µM (inactive) | > 100 µM (inactive) | 4.48 µM (inactive) | > 100 µM (inactive) | 12.9 µM (inactive) | > 100 µM (inactive) | 20.1 µM (inactive) | 4.81 µM (inactive) | > 100 µM (inactive) | 1.96 µM (inactive) | 34.8 µM (inactive) | – | 4.9 µM (inactive) | 7.53 µM (inactive) | > 100 µM (inactive) | 21.8 µM (inactive) | 6.49 µM (inactive) | 57.7 µM (inactive) | – | 8.26 µM (inactive)
CCOC(=O)c1nc2c(Cl)c3ncccc3cc2[nH]c1=O | 35.6 µM (inactive) | 79.6 µM (inactive) | 28.4 µM (inactive) | 95.7 µM (inactive) | 21.5 µM (inactive) | 66.5 µM (inactive) | > 100 µM (inactive) | 31.8 µM (inactive) | 25.6 µM (inactive) | 53.5 µM (inactive) | 27.9 µM (inactive) | 6.71 µM (inactive) | 29.3 µM (inactive) | 16.8 µM (inactive) | 61.7 µM (inactive) | 55 µM (inactive) | – | 46.7 µM (inactive) | 55.5 µM (inactive) | 22.4 µM (inactive)
C=C1C[C@@H](O)[C@@H](Br)C(C)(C)[C@@]12C=CC(=O)CC2 | > 100 µM (inactive) | > 100 µM (inactive) | > 100 µM (inactive) | > 100 µM (inactive) | > 100 µM (inactive) | > 100 µM (inactive) | > 100 µM (inactive) | > 86.5 µM (inactive) | > 100 µM (inactive) | 3.58 µM (inactive) | > 100 µM (inactive) | – | > 100 µM (inactive) | > 100 µM (inactive) | 3.18 µM (inactive) | > 100 µM (inactive) | > 100 µM (inactive) | > 100 µM (inactive) | > 96.4 µM (inactive) | > 78.5 µM (inactive)
